From patent US9850283B2, “Macrocyclic inhibitors of the PD-1/PD-L1 and CD80(B7-1)/PD-L1 protein/protein interactions” (BRISTOL-MYERS SQUIBB COMPANY, priority 2013, dated 2017) come the findings set out here.

For this test, the target named is T1, Human PD-L1/PD-1 (Homo sapiens, UniProt Q9NZQ7).
T1 construct: made in house; host or cells: HEK293T
Briefly: HTRF PD-1-Ig/PD-L1-His binding assay (human PD-L1). An excerpt: The ability of the macrocyclic peptides of the present disclosure to bind to PD-L1 was investigated using a PD-1/PD-L1 Homogenous Time-Resolved Fluorescence (HTRF) binding assay.
Homogenous Time-Resolved Fluorescence (HTRF) Assays of Binding of Soluble PD-1 to Soluble PD-L1. Soluble PD-1 and soluble PD-L1 refers to proteins with carboxyl-end truncations that remove the transmembrane-spanning regions and are fused to heterologous sequences, specifically the Fc portion of the human immunoglobuling G sequence (Ig) or the hexahistidine epitope tag (His). All binding studies were performed in an HTRF assay buffer consisting of dPBS supplemented with 0.1% (w/v) bovine serum albumin and 0.05% (v/v) Tween-20. […] PD-L1 fusion proteins from either human, cynomologous macaques, or mouse were used. HTRF detection was achieved using europium crypate-labeled anti-Ig monoclonal antibody (1 nM final) and allophycocyanin (APC) labeled anti-His monoclonal antibody (20 nM final). Antibodies were diluted in HTRF detection buffer and 5 μl was dispensed on top of binding reaction.

[1] abbreviates: Table 8, Compound No. 1 variant macrocyclic peptides, read-out: HTRF Human PD-L1/PD-1 Binding Assay IC50.
The mark [2] stands for this setting: Table 10, Compound No. 116 variant macrocyclic peptides, read-out: HTRF Human PD-L1/PD-1 Binding Assay IC50.
Where [3] appears, read: Table 7, Compound No. 99 variant macrocyclic peptides, read-out: HTRF Human PD-L1/PD-1 Binding Assay IC50.

Each structure is given as a SMILES string. Where two headings read alike, the source gives them in different places. Positions of bridges follow the written chain, without caps; N, C: chain ends. Non-standard residues stand in square brackets, D forms with d. Residues, ends and D or L forms follow the SMILES beside them. ξ: configuration not given here. PEG12 = NCCOCCOCCOCCOCCOCCOCCOCCOCCOCCOCCOCCOCCC(=O)O; Bta = N[C@@H](Cc1csc2ccccc12)C(=O)O; ξPro(4R-OH) = O=C(O)C1C[C@@H](O)CN1; Hyp = O=C(O)[C@@H]1C[C@@H](O)CN1; NMeNle = CCCC[C@H](NC)C(=O)O; αMeP = C[C@@]1(C(=O)O)CCCN1; NMeA = CN[C@@H](C)C(=O)O; Nle = CCCC[C@H](N)C(=O)O; Orn = NCCC[C@H](N)C(=O)O; ξPip = O=C(O)C1CCCCN1; ξP = O=C(O)C1CCCN1; Sar = CNCC(=O)O Bounds are passed on as bounds.

T1 sequence (Q9NZQ7 with tags, fused parts or gaps): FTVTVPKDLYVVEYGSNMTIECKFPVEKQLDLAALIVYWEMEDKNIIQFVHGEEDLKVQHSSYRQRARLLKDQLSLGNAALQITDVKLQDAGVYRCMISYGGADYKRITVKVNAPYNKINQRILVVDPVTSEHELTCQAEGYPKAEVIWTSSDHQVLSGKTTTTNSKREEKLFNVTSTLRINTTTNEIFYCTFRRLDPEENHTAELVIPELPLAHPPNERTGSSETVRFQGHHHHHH

With `CCCC[C@H]1C(=O)N(C)[C@@H](CCCC)C(=O)N[C@@H](CCCNC(=N)N)C(=O)N[C@H](C(=O)NCC(N)=O)CSCC(=O)N[C@@H](Cc2ccccc2)C(=O)N(C)[C@@H](C)C(=O)N[C@@H](CC(N)=O)C(=O)N2CCCCC2C(=O)N[C@@H](Cc2cnc[nH]2)C(=O)N[C@@H](CC(C)C)C(=O)N(C)CC(=O)N[C@@H](Cc2c[nH]c3ccccc23)C(=O)N[C@@H](CO)C(=O)N[C@@H](Cc2c[nH]c3ccccc23)C(=O)N1C` (some centres unmarked) [Compound No. 44] ({CH2CO}-F[NMeA]N[ξPip]HL[Sar]WSW[NMeNle][NMeNle]RCG-NH2; thioether N-14), the IC50 under setting [1] was 34 nM.
For `CCCC[C@H]1C(=O)N(C)[C@@H](CCCC)C(=O)N[C@@H](CC(C)C)C(=O)N[C@H](C(=O)NCC(=O)NCCOCCOCCOCCOCCOCCOCCOCCOCCOCCOCCOCCOCCC(N)=O)CSCC(=O)N[C@@H](Cc2ccccc2)C(=O)N(C)[C@@H](C)C(=O)N[C@@H](CC(N)=O)C(=O)N2CCC[C@H]2C(=O)N[C@@H](Cc2cnc[nH]2)C(=O)N[C@@H](Cc2cnc[nH]2)C(=O)N[C@@H](CO)C(=O)N[C@@H](Cc2c[nH]c3ccccc23)C(=O)N[C@@H](CCCNC(=N)N)C(=O)N[C@@H](Cc2c[nH]c3ccccc23)C(=O)N1C` [Compound No. 117] ({CH2CO}-F[NMeA]NPHHSWRW[NMeNle][NMeNle]LCG[PEG12]-NH2; thioether N-14), the IC50 under setting [2] was 21 nM.
For the compound `CCCC[C@H]1C(=O)N(C)[C@@H](CCCC)C(=O)N[C@@H](CCCNC(=N)N)C(=O)N[C@H](C(=O)NCC(N)=O)CSCC(=O)N[C@@H](Cc2ccccc2)C(=O)N(C)[C@@H](C)C(=O)N[C@@H](CC(N)=O)C(=O)N2CCC[C@H]2C(=O)N[C@@H](Cc2cnc[nH]2)C(=O)N[C@@H](CC(C)C)C(=O)N(C)CC(=O)N[C@@H](Cc2c[nH]c3ccccc23)C(=O)N[C@@H](CO)C(=O)N[C@@H](Cc2csc3ccccc23)C(=O)N1C` [Compound No. 64] ({CH2CO}-F[NMeA]NPHL[Sar]WS[Bta][NMeNle][NMeNle]RCG-NH2; thioether N-14), the IC50 under setting [1] worked out at 7 nM.
With `CCCC[C@H]1C(=O)N(C)[C@@H](CCCC)C(=O)N[C@@H](CCCNC(=N)N)C(=O)N[C@H](C(=O)NCC(N)=O)CSCC(=O)N[C@@H](Cc2ccccc2)C(=O)N(C)[C@@H](C)C(=O)N[C@@H](C)C(=O)N2CCCC2C(=O)N[C@@H](Cc2cnc[nH]2)C(=O)N[C@@H](CC(C)C)C(=O)N(C)CC(=O)N[C@@H](Cc2c[nH]c3ccccc23)C(=O)N[C@@H](CO)C(=O)N[C@@H](Cc2c[nH]c3ccccc23)C(=O)N1C` (some centres unmarked) [Compound No. 8] ({CH2CO}-F[NMeA]A[ξP]HL[Sar]WSW[NMeNle][NMeNle]RCG-NH2; thioether N-14), the IC50 under setting [1] turned out to be 31 nM.
Take `CCCC[C@H]1C(=O)N(C)[C@@H](CCCC)C(=O)N[C@@H](CCCNC(=N)N)C(=O)N[C@H](C(=O)NCC(N)=O)CSCC(=O)N[C@@H](Cc2ccccc2)C(=O)N(C)[C@@H](C)C(=O)N[C@@H](CC(N)=O)C(=O)N2C[C@H](O)CC2C(=O)N[C@@H](Cc2cnc[nH]2)C(=O)N[C@@H](CC(C)C)C(=O)N(C)CC(=O)N[C@@H](Cc2c[nH]c3ccccc23)C(=O)N[C@@H](CO)C(=O)N[C@@H](Cc2c[nH]c3ccccc23)C(=O)N1C` (stereo partly drawn) [Compound No. 47] ({CH2CO}-F[NMeA]N[ξPro(4R-OH)]HL[Sar]WSW[NMeNle][NMeNle]RCG-NH2; thioether N-14): the IC50 under setting [1] was 27 nM.
On the same count and under the same terms, the value for `CCCC[C@H]1C(=O)N(C)[C@@H](CCCC)C(=O)N[C@@H](CCCNC(=N)N)C(=O)N[C@H](C(=O)NCC(N)=O)CSCC(=O)N[C@@H](Cc2ccccc2)C(=O)N(C)[C@@H](C)C(=O)N[C@@H](CC(N)=O)C(=O)N2CCC[C@@]2(C)C(=O)N[C@@H](Cc2cnc[nH]2)C(=O)N[C@@H](CC(C)C)C(=O)N(C)CC(=O)N[C@@H](Cc2c[nH]c3ccccc23)C(=O)N[C@@H](CO)C(=O)N[C@@H](Cc2c[nH]c3ccccc23)C(=O)N1C` [Compound No. 49] ({CH2CO}-F[NMeA]N[αMeP]HL[Sar]WSW[NMeNle][NMeNle]RCG-NH2; thioether N-14) was 34 nM.
`CCCC[C@H]1C(=O)N(C)[C@@H](CCCC)C(=O)N[C@@H](CC(C)C)C(=O)N[C@H](C(=O)NCC(N)=O)CSCC(=O)N[C@@H](Cc2ccccc2)C(=O)N(C)[C@@H](C)C(=O)N[C@@H](CC(N)=O)C(=O)N2CCC[C@H]2C(=O)N[C@@H](Cc2cnc[nH]2)C(=O)N[C@@H](CCCNC(=N)N)C(=O)N[C@@H](CO)C(=O)N[C@@H](Cc2c[nH]c3ccccc23)C(=O)N[C@@H](CCCNC(=N)N)C(=O)N[C@@H](Cc2c[nH]c3ccccc23)C(=O)N1C` [Compound No. 3] ({CH2CO}-F[NMeA]NPHRSWRW[NMeNle][NMeNle]LCG-NH2; thioether N-14): under “Table 6, read-out: HTRF Human PD-L1/PD-1 Binding Assay IC50”, the IC50 was 13 nM.
Turning to `CC[C@H](C)[C@@H]1NC(=O)[C@H](C(C)C)NC(=O)[C@H]([C@@H](C)CC)NC(=O)[C@@H](Cc2ccccc2)NC(=O)[C@H](Cc2ccccc2)NC(=O)CSC[C@@H](C(=O)NCC(N)=O)NC(=O)[C@H](CCCNC(=N)N)NC(=O)[C@H](Cc2ccccc2)NC(=O)[C@H](C(C)C)NC(=O)[C@H](CCCNC(=N)N)NC(=O)[C@H](CC(=O)O)NC(=O)[C@H](CCCNC(=N)N)NC1=O` [Compound No. 102] (HELM PEPTIDE1{[O=C(C[*:3])[*:2]].F.[dF].I.V.I.R.D.R.V.F.R.C.G.[am]}$PEPTIDE1,PEPTIDE1,1:R3-13:R3$$$V2.0), under setting [3], the IC50 was above 20000 nM.
Take `CCCC[C@@H]1NC(=O)[C@H](Cc2c[nH]c3ccccc23)NC(=O)[C@H](CO)NC(=O)[C@H](Cc2c[nH]c3ccccc23)NC(=O)CN(C)C(=O)[C@H](CC(C)C)NC(=O)[C@H](Cc2cnc[nH]2)NC(=O)C2CCCN2C(=O)[C@H](CC(N)=O)NC(=O)[C@H](C)N(C)C(=O)[C@H](Cc2ccccc2)NC(=O)CSC[C@@H](C(=O)NCC(N)=O)NC(=O)[C@H](CCCNC(=N)N)NC(=O)[C@H](CCCC)N(C)C1=O` (some centres unmarked) [Compound No. 18] ({CH2CO}-F[NMeA]N[ξP]HL[Sar]WSW[Nle][NMeNle]RCG-NH2; thioether N-14): under setting [1], the IC50 was determined as 36 nM.
As for `CCCC[C@H]1C(=O)N(C)[C@@H](CCCC)C(=O)N[C@@H](CCCN)C(=O)N[C@H](C(=O)NCC(N)=O)CSCC(=O)N[C@@H](Cc2ccc(O)cc2)C(=O)N2CCC[C@H]2C(=O)N[C@@H](CC(N)=O)C(=O)N2CCC[C@H]2C(=O)N[C@@H](Cc2cnc[nH]2)C(=O)N[C@@H](CC(C)C)C(=O)N2C[C@H](O)C[C@H]2C(=O)N[C@@H](Cc2c[nH]c3ccccc23)C(=O)N[C@@H](CO)C(=O)N[C@@H](Cc2c[nH]c3ccccc23)C(=O)N1C` [Example 1173] ({CH2CO}-YPNPHL[Hyp]WSW[NMeNle][NMeNle][Orn]CG-NH2; thioether N-14), for the setting “read-out: HTRF IC50 value”, the IC50 came out at 2.71 nM.
As for `CC[C@H](C)[C@@H]1NC(=O)[C@H](CC(C)C)NC(=O)[C@H](Cc2ccccc2)NC(=O)CSC[C@@H](C(=O)NCC(N)=O)NC(=O)[C@H](CCCNC(=N)N)NC(=O)[C@H](Cc2ccccc2)NC(=O)[C@H](C(C)C)NC(=O)[C@H](CCCNC(=N)N)NC(=O)[C@H](CC(=O)O)NC(=O)[C@H](CC(C)C)NC(=O)[C@H]([C@@H](C)CC)NC(=O)[C@H](C(C)C)NC1=O` [Compound No. 109] (HELM PEPTIDE1{[O=C(C[*:3])[*:2]].F.L.I.V.I.L.D.R.V.F.R.C.G.[am]}$PEPTIDE1,PEPTIDE1,1:R3-13:R3$$$V2.0), the IC50 under setting [3] was above 20000 nM.
As to `CCCC[C@H]1C(=O)N(C)[C@@H](CCCC)C(=O)N[C@@H](CCCNC(=N)N)C(=O)N[C@H](C(=O)NCC(=O)NCCOCCOCCOCCOCCOCCOCCOCCOCCOCCOCCOCCOCCC(N)=O)CSCC(=O)N[C@@H](Cc2ccccc2)C(=O)N(C)[C@@H](C)C(=O)N[C@@H](CC(N)=O)C(=O)N2CCC[C@H]2C(=O)N[C@@H](Cc2cnc[nH]2)C(=O)N[C@@H](CC(C)C)C(=O)N(C)CC(=O)N[C@@H](Cc2c[nH]c3ccccc23)C(=O)N[C@@H](CO)C(=O)N[C@@H](Cc2c[nH]c3ccccc23)C(=O)N1C` [Compound No. 116] ({CH2CO}-F[NMeA]NPHL[Sar]WSW[NMeNle][NMeNle]RCG[PEG12]-NH2; thioether N-14), the IC50 under setting [2] turned out to be 21 nM.
With `CCCC[C@H]1C(=O)N(C)[C@@H](CCCC)C(=O)N[C@@H](CCCNC(=N)N)C(=O)N[C@H](C(N)=O)CSCC(=O)N[C@@H](Cc2ccccc2)C(=O)N(C)[C@@H](C)C(=O)N[C@@H](CC(N)=O)C(=O)N2CCCC2C(=O)N[C@@H](Cc2cnc[nH]2)C(=O)N[C@@H](CC(C)C)C(=O)N(C)CC(=O)N[C@@H](Cc2c[nH]c3ccccc23)C(=O)N[C@@H](CO)C(=O)N[C@@H](Cc2c[nH]c3ccccc23)C(=O)N1C` (some centres unmarked) [Compound No. 24] ({CH2CO}-F[NMeA]N[ξP]HL[Sar]WSW[NMeNle][NMeNle]RC-NH2; thioether N-14), the IC50 under setting [1] amounted to 9 nM.
For `CCCC[C@H]1C(=O)N(C)[C@@H](CCCC)C(=O)N[C@@H](CCCNC(=N)N)C(=O)N[C@@H](C(=O)NCC(N)=O)CSCC(=O)N[C@@H](Cc2c[nH]c3ccccc23)C(=O)N(C)[C@@H](C)C(=O)N[C@@H](CC(N)=O)C(=O)N2CCC[C@H]2C(=O)N[C@@H](Cc2cnc[nH]2)C(=O)N[C@@H](CC(C)C)C(=O)N(C)CC(=O)N[C@@H](Cc2c[nH]c3ccccc23)C(=O)N[C@@H](CO)C(=O)N[C@@H](Cc2c[nH]c3ccccc23)C(=O)N1C` [Compound No. 25] ({CH2CO}-W[NMeA]NPHL[Sar]WSW[NMeNle][NMeNle]R[dC]G-NH2; thioether N-14), the IC50 under setting [1] was determined as 27 nM.
